How the values were obtained:
[1] = biological target: PKC-α (Homo sapiens, UniProt P17252); test: Z'-LYTE kinase activity assay; assay type: biochemical; conditions: ATP at Kmapp, 2 μM peptide substrate; read-out: IC50 for classical PKC isoforms, PKC-α
Text: (§1) In this assay, phosphorylation of a synthetic FRET-peptide substrate protects the peptide from cleavage by the development reagent and prevents disruption of the FRET signal.

[2] = biological target: PKC-β1 (Homo sapiens, UniProt P05771); test: Z'-LYTE kinase activity assay; assay type: biochemical; conditions: ATP at Kmapp, 2 μM peptide substrate; read-out: IC50 for classical PKC isoforms, PKC-β1
Chain of PKC-β1 (P05771 whole entry, canonical isoform): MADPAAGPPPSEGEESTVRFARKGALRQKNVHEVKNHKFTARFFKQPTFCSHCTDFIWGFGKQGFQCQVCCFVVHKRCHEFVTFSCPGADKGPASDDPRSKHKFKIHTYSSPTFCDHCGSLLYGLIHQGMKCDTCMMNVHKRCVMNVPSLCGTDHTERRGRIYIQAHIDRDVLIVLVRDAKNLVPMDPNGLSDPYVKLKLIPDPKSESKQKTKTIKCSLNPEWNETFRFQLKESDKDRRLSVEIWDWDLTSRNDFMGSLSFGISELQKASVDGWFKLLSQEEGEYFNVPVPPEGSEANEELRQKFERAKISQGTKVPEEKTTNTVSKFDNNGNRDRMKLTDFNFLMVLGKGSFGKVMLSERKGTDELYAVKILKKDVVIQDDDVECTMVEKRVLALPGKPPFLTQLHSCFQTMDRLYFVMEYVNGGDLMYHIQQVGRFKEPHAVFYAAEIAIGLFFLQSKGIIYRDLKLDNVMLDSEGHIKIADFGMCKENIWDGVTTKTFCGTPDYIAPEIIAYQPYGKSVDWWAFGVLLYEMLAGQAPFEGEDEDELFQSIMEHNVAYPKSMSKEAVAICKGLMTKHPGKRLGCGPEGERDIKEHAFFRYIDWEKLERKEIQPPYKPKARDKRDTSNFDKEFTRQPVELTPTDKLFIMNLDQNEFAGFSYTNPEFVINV
Text: as §1

[3] = biological target: PKC-β2 (Homo sapiens, UniProt P05771); test: Z'-LYTE kinase activity assay; assay type: biochemical; conditions: ATP at Kmapp, 2 μM peptide substrate; read-out: IC50 for classical PKC isoforms, PKC-β2
Chain of PKC-β2 (P05771 1-673 isoform P05771-2): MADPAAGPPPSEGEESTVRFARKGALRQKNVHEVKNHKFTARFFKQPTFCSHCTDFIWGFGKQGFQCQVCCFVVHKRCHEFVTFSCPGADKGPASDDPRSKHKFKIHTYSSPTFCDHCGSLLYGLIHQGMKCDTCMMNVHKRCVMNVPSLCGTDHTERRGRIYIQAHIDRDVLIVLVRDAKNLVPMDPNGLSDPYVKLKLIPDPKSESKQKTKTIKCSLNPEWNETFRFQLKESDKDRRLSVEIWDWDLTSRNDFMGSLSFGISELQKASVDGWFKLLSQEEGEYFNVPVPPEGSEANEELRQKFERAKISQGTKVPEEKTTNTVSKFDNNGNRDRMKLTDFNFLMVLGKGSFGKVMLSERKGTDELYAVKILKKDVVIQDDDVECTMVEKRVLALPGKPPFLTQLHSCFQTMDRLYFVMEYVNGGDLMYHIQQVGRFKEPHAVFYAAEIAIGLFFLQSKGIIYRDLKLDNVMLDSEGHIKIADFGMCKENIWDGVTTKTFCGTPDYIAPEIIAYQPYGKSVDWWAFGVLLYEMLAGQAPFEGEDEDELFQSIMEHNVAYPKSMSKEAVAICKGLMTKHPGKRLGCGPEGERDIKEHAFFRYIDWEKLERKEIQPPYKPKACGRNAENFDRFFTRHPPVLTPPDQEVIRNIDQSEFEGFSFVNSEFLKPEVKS
Text: as §1

[4] = biological target: PKC-γ (Homo sapiens, UniProt P05129); test: Z'-LYTE kinase activity assay; assay type: biochemical; conditions: ATP at Kmapp, 2 μM peptide substrate; read-out: IC50 for classical PKC isoforms, PKC-γ
Text: as §1

[5] = biological target: PKC-δ (Homo sapiens, UniProt Q05655); test: Z'-LYTE kinase activity assay; assay type: biochemical; conditions: ATP at Kmapp, 2 μM peptide substrate; read-out: IC50 for novel PKC isoforms, PKC-δ
Chain of PKC-δ (Q05655 whole entry, canonical isoform): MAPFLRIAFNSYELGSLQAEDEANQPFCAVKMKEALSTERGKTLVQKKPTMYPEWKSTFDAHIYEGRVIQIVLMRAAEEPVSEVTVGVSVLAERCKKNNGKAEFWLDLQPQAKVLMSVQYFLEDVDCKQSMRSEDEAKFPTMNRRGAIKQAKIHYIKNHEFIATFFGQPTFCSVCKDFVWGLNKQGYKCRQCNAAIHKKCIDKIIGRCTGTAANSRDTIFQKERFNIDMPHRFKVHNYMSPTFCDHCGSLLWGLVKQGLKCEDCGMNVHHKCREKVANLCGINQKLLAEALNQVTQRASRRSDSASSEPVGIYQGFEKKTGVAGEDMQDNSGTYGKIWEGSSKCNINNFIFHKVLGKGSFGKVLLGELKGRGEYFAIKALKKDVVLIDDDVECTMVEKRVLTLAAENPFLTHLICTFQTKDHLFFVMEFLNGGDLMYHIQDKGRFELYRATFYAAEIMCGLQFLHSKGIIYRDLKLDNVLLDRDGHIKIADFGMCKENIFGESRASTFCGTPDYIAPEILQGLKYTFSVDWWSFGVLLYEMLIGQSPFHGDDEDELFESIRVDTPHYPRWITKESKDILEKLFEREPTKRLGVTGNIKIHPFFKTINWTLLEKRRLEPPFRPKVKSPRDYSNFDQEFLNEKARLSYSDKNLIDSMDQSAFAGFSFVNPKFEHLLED
Text: as §1

[6] = biological target: T1, PKC-ε (Homo sapiens, UniProt Q02156); test: Z'-LYTE kinase activity assay; assay type: biochemical
T1 sequence (Q02156 1-737): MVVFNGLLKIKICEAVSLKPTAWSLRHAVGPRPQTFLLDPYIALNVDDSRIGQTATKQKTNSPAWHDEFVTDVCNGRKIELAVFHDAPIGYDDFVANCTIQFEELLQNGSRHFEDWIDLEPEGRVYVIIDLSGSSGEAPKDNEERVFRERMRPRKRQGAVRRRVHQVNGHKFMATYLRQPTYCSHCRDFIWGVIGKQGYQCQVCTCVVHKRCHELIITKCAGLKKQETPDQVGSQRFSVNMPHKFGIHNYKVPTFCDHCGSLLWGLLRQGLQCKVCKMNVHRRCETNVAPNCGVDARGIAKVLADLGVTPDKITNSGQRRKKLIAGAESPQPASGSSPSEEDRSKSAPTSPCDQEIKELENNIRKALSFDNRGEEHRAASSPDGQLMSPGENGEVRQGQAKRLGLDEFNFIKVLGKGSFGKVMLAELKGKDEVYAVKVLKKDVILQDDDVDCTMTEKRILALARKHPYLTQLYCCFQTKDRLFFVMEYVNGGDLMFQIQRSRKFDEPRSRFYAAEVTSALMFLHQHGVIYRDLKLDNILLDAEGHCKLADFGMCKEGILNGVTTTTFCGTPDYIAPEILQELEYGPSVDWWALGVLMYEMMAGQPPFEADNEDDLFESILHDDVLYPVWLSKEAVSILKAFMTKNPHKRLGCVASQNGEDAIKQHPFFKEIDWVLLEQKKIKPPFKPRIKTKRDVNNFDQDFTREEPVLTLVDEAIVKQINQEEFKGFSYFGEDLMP
Text: as §1

[7] = biological target: PKC-η (Homo sapiens, UniProt P24723); test: Z'-LYTE kinase activity assay; assay type: biochemical; conditions: ATP at Kmapp, 2 μM peptide substrate; read-out: IC50 for novel PKC isoforms, PKC-η
Chain of PKC-η (P24723 whole entry, canonical isoform): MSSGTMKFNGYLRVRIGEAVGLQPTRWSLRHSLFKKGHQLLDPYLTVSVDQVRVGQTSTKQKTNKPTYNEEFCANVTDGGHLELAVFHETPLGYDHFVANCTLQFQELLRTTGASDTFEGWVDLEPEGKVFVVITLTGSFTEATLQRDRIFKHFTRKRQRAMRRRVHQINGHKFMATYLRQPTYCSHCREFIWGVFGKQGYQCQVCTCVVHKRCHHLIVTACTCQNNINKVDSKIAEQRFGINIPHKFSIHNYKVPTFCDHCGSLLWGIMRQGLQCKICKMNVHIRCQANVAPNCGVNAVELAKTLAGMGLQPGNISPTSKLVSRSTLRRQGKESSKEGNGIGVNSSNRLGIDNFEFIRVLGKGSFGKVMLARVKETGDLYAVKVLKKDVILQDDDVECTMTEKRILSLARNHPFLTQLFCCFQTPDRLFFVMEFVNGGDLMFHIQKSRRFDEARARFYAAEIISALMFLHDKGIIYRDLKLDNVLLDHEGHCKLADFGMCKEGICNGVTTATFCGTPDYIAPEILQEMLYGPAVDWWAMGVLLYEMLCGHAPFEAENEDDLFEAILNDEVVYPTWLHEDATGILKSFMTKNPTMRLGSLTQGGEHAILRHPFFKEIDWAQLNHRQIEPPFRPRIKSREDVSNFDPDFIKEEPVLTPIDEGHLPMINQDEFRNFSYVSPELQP
Text: as §1

[8] = biological target: PKC-θ (Homo sapiens, UniProt Q04759); test: Z'-LYTE kinase activity assay; assay type: biochemical; conditions: ATP at Kmapp, 2 μM peptide substrate; read-out: IC50 for novel PKC isoforms, PKC-θ
Chain of PKC-θ (Q04759 whole entry, canonical isoform): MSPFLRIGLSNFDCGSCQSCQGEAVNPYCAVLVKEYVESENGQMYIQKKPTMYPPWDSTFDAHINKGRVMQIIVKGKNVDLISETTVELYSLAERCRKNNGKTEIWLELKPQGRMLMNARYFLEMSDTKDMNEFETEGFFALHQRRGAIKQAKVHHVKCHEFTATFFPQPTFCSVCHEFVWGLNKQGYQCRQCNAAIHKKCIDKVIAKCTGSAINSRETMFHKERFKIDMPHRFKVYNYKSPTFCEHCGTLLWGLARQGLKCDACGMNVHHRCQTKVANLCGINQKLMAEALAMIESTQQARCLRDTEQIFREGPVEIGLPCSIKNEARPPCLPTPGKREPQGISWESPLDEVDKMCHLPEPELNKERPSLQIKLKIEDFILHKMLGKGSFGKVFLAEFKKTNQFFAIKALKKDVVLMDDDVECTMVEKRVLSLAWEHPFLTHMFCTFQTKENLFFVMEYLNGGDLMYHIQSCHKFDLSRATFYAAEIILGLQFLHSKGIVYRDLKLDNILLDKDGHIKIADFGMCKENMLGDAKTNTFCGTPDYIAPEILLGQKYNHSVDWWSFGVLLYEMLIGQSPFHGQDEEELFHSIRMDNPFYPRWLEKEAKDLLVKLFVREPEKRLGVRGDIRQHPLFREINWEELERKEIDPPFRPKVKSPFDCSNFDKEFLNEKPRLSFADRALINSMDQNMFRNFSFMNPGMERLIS
Text: as §1

[9] = system: classical and novel PKC isoforms; test: Estimated PKC inhibition in cell culture from Z'-LYTE IC50 and free fraction; assay type: biochemical; conditions: 5 µM, 46% free in cell culture media
Text: as §1

[10] = Free fraction in cell culture media; assay type: in vitro ADME
[11] = system: latent HIV in total CD4+ T cells; test: microbe, parasite or virus in culture; assay type: cell-based, HIV-1; conditions: inhibitor 5 μM with DMSO, no agonist
Method: Peripheral blood mononuclear cells and CD4^+ T cells used for evaluating PKC agonist and inhibitor molecules were isolated from leukopaks of selected participants as described previously. Isolated CD4^+ T cells (5×10^6 cells/well) were added to 24-well tissue culture plates in 2.5 mL of RPMI medium containing 100 nM each of elvitegravir and efavirenz. Cells were stimulated with DMSO (vehicle control) or the indicated concentrations of PKC agonist molecules. Cells were pretreated with PKC isoform inhibitors (Selleck Chemicals) for 1 hour before addition of PKC agonist at indicated concentrations and maintained at 37 °C, 5% CO2 for 3 days. Cell supernatants from each well were analyzed using the Cobas […] system for quantification of HIV-1 RNA using the HIV-1 test v2.0 kit (Roche Diagnostics).

In the case of `CN(C)CCCn1cc(C2=C(c3c[nH]c4ccccc34)C(=O)NC2=O)c2ccccc21` [Gӧ-6850], the IC50 [1] is reported as 2.53 nM, the IC50 [2] is reported as 0.457 nM and the IC50 [3] is reported as 0.331 nM. The IC50 [4] was 2.18 nM, the IC50 [5] was 9.63 nM and the inhibition at 5 µM ([6]; 5 µM, 46% free in cell culture media, read-out: estimated inhibition of PKC-ε) was 70%. It also gave an IC50 ([6]; ATP at Kmapp, 2 μM peptide substrate, read-out: IC50 for novel PKC isoforms, PKC-ε) of 67.6 nM, an IC50 [7] of 11.3 nM and an IC50 [8] of 3 nM. The “estimated inhibition of all classical and novel isoforms, except PKC-ε” value [9] was > 90%, the “free in cell culture media” value [10] was 46% and the “HIV RNA Fold∆ over DMSO, Geomean” value [11] was 1.2 fold.

— publication PMC11801715, “Activating PKC-ε induces HIV expression with improved tolerability” (PLOS Pathogens, 2025)
